This experiment concerns the target T1, recombinant human Seprase (rhuSeprase) (Homo sapiens, UniProt Q12884).
T1 construct: named pCEP4-IgKappa-huSeprase-coCHO_26-760aa-H6 and used for the generation of recombinant soluble human Seprase (rhuSeprase); mouse Ig kappa-chain V-J2-C secretion signal (N, cleaved yes); made in house; host or cells: FreeStyle CHO-S cells (transient transfection; purified from supernatant by Ni-chelate and SEC)
T1 sequence (Q12884 26-760): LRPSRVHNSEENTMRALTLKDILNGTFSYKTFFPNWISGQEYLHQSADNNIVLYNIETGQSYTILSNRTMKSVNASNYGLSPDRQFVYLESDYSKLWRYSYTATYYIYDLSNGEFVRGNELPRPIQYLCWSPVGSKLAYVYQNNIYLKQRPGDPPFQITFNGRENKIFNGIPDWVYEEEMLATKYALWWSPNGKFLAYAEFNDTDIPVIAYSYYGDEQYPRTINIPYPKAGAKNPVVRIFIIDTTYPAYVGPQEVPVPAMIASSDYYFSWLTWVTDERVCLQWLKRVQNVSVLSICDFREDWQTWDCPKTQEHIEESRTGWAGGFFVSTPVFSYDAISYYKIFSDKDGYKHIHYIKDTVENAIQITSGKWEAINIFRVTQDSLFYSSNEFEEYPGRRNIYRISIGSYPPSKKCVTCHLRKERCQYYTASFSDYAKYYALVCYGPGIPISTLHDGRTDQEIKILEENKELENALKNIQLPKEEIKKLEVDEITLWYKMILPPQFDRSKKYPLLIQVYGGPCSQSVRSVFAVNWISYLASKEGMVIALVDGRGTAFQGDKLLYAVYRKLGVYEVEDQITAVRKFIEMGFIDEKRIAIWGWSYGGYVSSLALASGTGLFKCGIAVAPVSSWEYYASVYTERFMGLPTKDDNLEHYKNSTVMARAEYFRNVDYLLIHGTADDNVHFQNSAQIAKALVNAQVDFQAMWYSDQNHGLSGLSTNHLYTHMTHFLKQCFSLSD
Briefly: Surface plasmon resonance (Biacore T100) on immobilized rhuSeprase. In kind it is binding. Particulars: for kon: read-out: ka (1/Ms). (Surface plasmon resonance follows binding to a sensor surface in real time, without labels.)

pKd: −log10 of the molar value. Positions of bridges follow the written chain, without caps; N, C: chain ends. Residues, ends and D or L forms follow the SMILES beside them.

With `CC[C@H](C)[C@@H]1NC(=O)[C@@H]2CSSC[C@H](NC(=O)[C@H](C)NC(=O)CNC(=O)[C@H](CO)NC(=O)CN)C(=O)N3CCC[C@H]3C(=O)N[C@@H](Cc3ccc(O)cc3)C(=O)N[C@@H]([C@@H](C)O)C(=O)N[C@@H](CCCNC(=N)N)C(=O)N[C@@H](Cc3c[nH]c4ccccc34)C(=O)N[C@@H](CCC(N)=O)C(=O)N3CCC[C@H]3C(=O)NCC(=O)N[C@@H](CCCNC(=N)N)C(=O)NCC(=O)N3CCC[C@H]3C(=O)N[C@@H](CO)C(=O)N[C@H]3CSSC[C@H](NC1=O)C(=O)N[C@@H](CCCNC(=N)N)C(=O)NCC(=O)N[C@@H](CC(N)=O)C(=O)NCC(=O)N[C@@H](Cc1ccc(O)cc1)C(=O)N[C@H](C(=O)NCC(=O)O)CSSC[C@H](NC(=O)[C@H](CC(=O)O)NC(=O)[C@H](CO)NC(=O)[C@H](CC(=O)O)NC(=O)[C@H](CCCNC(=N)N)NC(=O)[C@H](CCCNC(=N)N)NC3=O)C(=O)N1CCC[C@H]1C(=O)NCC(=O)N[C@@H](CCCNC(=N)N)C(=O)N2` [FA8-D05] (H-GSGACPYTRWQPGRGPSCRRDSDCPGRCICRGNGYCG-OH; disulfide 5-28, 18-30, 24-36; N-terminus and C-terminus assumed), the “kd” value was 0.8121 s⁻¹ and the kon came out at 4.21e+06 M⁻¹ s⁻¹.
The pKd is the Kd on a negative log10 scale, so that one unit is a factor of ten. Regarding `CC[C@H](C)[C@@H]1NC(=O)[C@@H]2CSSC[C@H](NC(=O)[C@H](C)NC(=O)CNC(=O)[C@H](CO)NC(=O)CN)C(=O)N3CCC[C@H]3C(=O)N[C@@H](Cc3ccc(O)cc3)C(=O)N[C@@H](CO)C(=O)N[C@@H](CCCNC(=N)N)C(=O)N[C@@H](Cc3c[nH]c4ccccc34)C(=O)N[C@@H](C)C(=O)N[C@@H](C(C)C)C(=O)NCC(=O)N[C@@H](CCCNC(=N)N)C(=O)NCC(=O)N3CCC[C@H]3C(=O)N[C@@H](CC(=O)O)C(=O)N[C@H]3CSSC[C@H](NC1=O)C(=O)N[C@@H](CCCNC(=N)N)C(=O)NCC(=O)N[C@@H](CC(N)=O)C(=O)NCC(=O)N[C@@H](Cc1ccc(O)cc1)C(=O)N[C@H](C(=O)NCC(=O)O)CSSC[C@H](NC(=O)[C@H](CC(=O)O)NC(=O)[C@H](CO)NC(=O)[C@H](CC(=O)O)NC(=O)[C@H](CCCNC(=N)N)NC(=O)[C@H](CCCNC(=N)N)NC3=O)C(=O)N1CCC[C@H]1C(=O)NCC(=O)N[C@@H](CCCNC(=N)N)C(=O)N2` [FA8-D06] (H-GSGACPYSRWAVGRGPDCRRDSDCPGRCICRGNGYCG-OH; disulfide 5-28, 18-30, 24-36; N-terminus and C-terminus assumed), the “kd” value was found to be 0.05303 s⁻¹ and the kon amounted to 346000 M⁻¹ s⁻¹. Besides, for the setting “KD (M, steady state)”, the negative-log Kd (pKd) is 6.95.
As for `CC[C@H](C)[C@@H]1NC(=O)[C@@H]2CSSC[C@H](NC(=O)[C@H](C)NC(=O)CNC(=O)[C@H](CO)NC(=O)CN)C(=O)N3CCC[C@H]3C(=O)N[C@@H](Cc3ccc(O)cc3)C(=O)N[C@@H](CO)C(=O)N[C@@H](CC(N)=O)C(=O)N[C@@H](Cc3c[nH]c4ccccc34)C(=O)N[C@@H](C)C(=O)N[C@@H](C(C)C)C(=O)NCC(=O)N[C@@H](CCCNC(=N)N)C(=O)NCC(=O)N3CCC[C@H]3C(=O)N[C@@H](CO)C(=O)N[C@H]3CSSC[C@H](NC1=O)C(=O)N[C@@H](CCCNC(=N)N)C(=O)NCC(=O)N[C@@H](CC(N)=O)C(=O)NCC(=O)N[C@@H](Cc1ccc(O)cc1)C(=O)N[C@H](C(=O)NCC(=O)O)CSSC[C@H](NC(=O)[C@H](CC(=O)O)NC(=O)[C@H](CO)NC(=O)[C@H](CC(=O)O)NC(=O)[C@H](CCCNC(=N)N)NC(=O)[C@H](CCCNC(=N)N)NC3=O)C(=O)N1CCC[C@H]1C(=O)NCC(=O)N[C@@H](CCCNC(=N)N)C(=O)N2` [FA8-F04] (H-GSGACPYSNWAVGRGPSCRRDSDCPGRCICRGNGYCG-OH; disulfide 5-28, 18-30, 24-36; N-terminus and C-terminus assumed), the “kd” value stood at 0.2003 s⁻¹ and the kon was 624000 M⁻¹ s⁻¹.
For `CC[C@H](C)[C@@H]1NC(=O)[C@@H]2CSSC[C@H](NC(=O)[C@H](C)NC(=O)CNC(=O)[C@H](CO)NC(=O)CN)C(=O)N3CCC[C@H]3C(=O)N[C@@H](Cc3ccc(O)cc3)C(=O)N[C@@H]([C@@H](C)O)C(=O)N[C@@H](CC(N)=O)C(=O)N[C@@H](Cc3c[nH]c4ccccc34)C(=O)N[C@@H](Cc3c[nH]cn3)C(=O)N3CCC[C@H]3C(=O)NCC(=O)N[C@@H](CCCNC(=N)N)C(=O)NCC(=O)N3CCC[C@H]3C(=O)N[C@@H](C)C(=O)N[C@H]3CSSC[C@H](NC1=O)C(=O)N[C@@H](CCCNC(=N)N)C(=O)NCC(=O)N[C@@H](CC(N)=O)C(=O)NCC(=O)N[C@@H](Cc1ccc(O)cc1)C(=O)N[C@H](C(=O)NCC(=O)O)CSSC[C@H](NC(=O)[C@H](CC(=O)O)NC(=O)[C@H](CO)NC(=O)[C@H](CC(=O)O)NC(=O)[C@H](CCCNC(=N)N)NC(=O)[C@H](CCCNC(=N)N)NC3=O)C(=O)N1CCC[C@H]1C(=O)NCC(=O)N[C@@H](CCCNC(=N)N)C(=O)N2` [FA8-G12] (H-GSGACPYTNWHPGRGPACRRDSDCPGRCICRGNGYCG-OH; disulfide 5-28, 18-30, 24-36; N-terminus and C-terminus assumed), in that order: 0.3171 s⁻¹ and 651000 M⁻¹ s⁻¹.
Take `CC[C@H](C)[C@@H]1NC(=O)[C@@H]2CSSC[C@H](NC(=O)[C@H](C)NC(=O)CN)C(=O)N3CCC[C@H]3C(=O)N[C@@H](Cc3ccc(O)cc3)C(=O)N[C@@H](CO)C(=O)N[C@@H](CC(N)=O)C(=O)N[C@@H](Cc3c[nH]c4ccccc34)C(=O)N[C@@H]([C@@H](C)O)C(=O)N3CCC[C@H]3C(=O)NCC(=O)N[C@@H](CCCNC(=N)N)C(=O)NCC(=O)N3CCC[C@H]3C(=O)N[C@@H](CC(=O)O)C(=O)N[C@H]3CSSC[C@H](NC1=O)C(=O)N[C@@H](CCCNC(=N)N)C(=O)NCC(=O)N[C@@H](CC(N)=O)C(=O)NCC(=O)N[C@@H](Cc1ccc(O)cc1)C(=O)N[C@H](C(=O)NCC(=O)O)CSSC[C@H](NC(=O)[C@H](CC(=O)O)NC(=O)[C@H](CO)NC(=O)[C@H](CC(=O)O)NC(=O)[C@H](CCCNC(=N)N)NC(=O)[C@H](CCCNC(=N)N)NC3=O)C(=O)N1CCC[C@H]1C(=O)NCC(=O)N[C@@H](CCCNC(=N)N)C(=O)N2` [MC-FA-012] (H-GACPYSNWTPGRGPDCRRDSDCPGRCICRGNGYCG-OH; disulfide 3-26, 16-28, 22-34; N-terminus and C-terminus assumed): the kon is 408000 M⁻¹ s⁻¹.
For the molecule `CC[C@H](C)[C@@H]1NC(=O)[C@@H]2CSSC[C@H](NC(=O)[C@H](C)NC(=O)CNC(=O)[C@H](CO)NC(=O)CN)C(=O)N3CCC[C@H]3C(=O)N[C@@H](Cc3ccc(O)cc3)C(=O)N[C@@H](CO)C(=O)N[C@@H](CC(N)=O)C(=O)N[C@@H](Cc3c[nH]c4ccccc34)C(=O)N[C@@H]([C@@H](C)O)C(=O)N3CCC[C@H]3C(=O)NCC(=O)N[C@@H](CCCNC(=N)N)C(=O)NCC(=O)N3CCC[C@H]3C(=O)N[C@@H](CC(=O)O)C(=O)N[C@H]3CSSC[C@H](NC1=O)C(=O)N[C@@H](CC(C)C)C(=O)N[C@@H](CCC(=O)O)C(=O)N[C@@H](CC(N)=O)C(=O)NCC(=O)N[C@@H](Cc1ccccc1)C(=O)N[C@H](C(=O)NCC(=O)O)CSSC[C@H](NC(=O)[C@H](CC(=O)O)NC(=O)[C@H](CO)NC(=O)[C@H](CC(=O)O)NC(=O)[C@H](CO)NC(=O)[C@H](CO)NC3=O)C(=O)N1CCC[C@H]1C(=O)NCC(=O)N[C@@H](C)C(=O)N2` [MO-FA-012] (H-GSGACPYSNWTPGRGPDCSSDSDCPGACICLENGFCG-OH; disulfide 5-28, 18-30, 24-36; N-terminus and C-terminus assumed), the “kd” value is 0.5128 s⁻¹ and the kon worked out at 382000 M⁻¹ s⁻¹.
